The values below come from US20020076443A1, “Multiple phase cross-linked compositions and uses thereof” (priority 2000, published 2002).

The nature of one data set: Water solubility. The settings on record: clinical grade dextran of about 70 kDa versus HSA. Type of data set: physicochemical.
The conditions of data set [1]: cited from earlier work.

dextran: the “water solubility, fold lower than HSA” value in the data set “Water solubility” is recorded as > 10 fold. Further, the water solubility entry in data set [1] is listed as “about 30 mg/mL”.
